Measurements taken from paper PMC12436592 (Nature Communications, 2025).
Where “and” joins values, the source holds several entries; their conditions need not be identical. Equal entries are not always repeated. One block for each molecule: values may come before it.

What was measured:
rP2X7R [1] = target: rP2X7R; parameters: method as in PMID 39107314; conditions: BLI; read-out: equilibrium dissociation constant (KD), rP2X7R; cited from earlier work
mP2X7R = target: T1, mP2X7R (Mus musculus, UniProt Q9Z1M0); test: TEVC dose response of ATP at mP2X7R in Xenopus oocytes; format: cell-based
T1 construct: expressed in transfected cells
T1 sequence (Q9Z1M0 1-595): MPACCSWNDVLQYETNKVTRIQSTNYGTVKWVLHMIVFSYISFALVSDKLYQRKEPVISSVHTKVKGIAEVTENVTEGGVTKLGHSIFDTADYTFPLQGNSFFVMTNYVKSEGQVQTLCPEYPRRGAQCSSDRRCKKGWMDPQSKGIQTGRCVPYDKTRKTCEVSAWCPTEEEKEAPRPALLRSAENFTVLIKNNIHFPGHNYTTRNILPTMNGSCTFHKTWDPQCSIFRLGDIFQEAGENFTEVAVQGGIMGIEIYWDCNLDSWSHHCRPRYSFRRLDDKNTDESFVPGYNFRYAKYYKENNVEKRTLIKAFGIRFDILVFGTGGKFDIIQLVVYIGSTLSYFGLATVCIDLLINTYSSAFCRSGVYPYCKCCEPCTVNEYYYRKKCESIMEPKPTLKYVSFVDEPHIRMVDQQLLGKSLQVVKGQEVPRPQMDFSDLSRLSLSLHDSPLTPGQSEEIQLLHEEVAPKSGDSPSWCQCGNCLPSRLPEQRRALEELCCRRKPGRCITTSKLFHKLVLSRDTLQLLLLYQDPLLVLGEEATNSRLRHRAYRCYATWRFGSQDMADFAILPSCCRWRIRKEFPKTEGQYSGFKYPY
Experimental: (§1) Defolliculated Xenopus laevis oocytes were purchased from Ecocyte Bioscience and kept in Modified Barth’s Solution (88 mM NaCl, 1 mM KCl, 0.82 mM MgSO4, 0.33 mM Ca(NO3)2·4H2O, 0.41 mM CaCl2·2H2O, 2.4 mM NaHCO3, 5 mM HEPES) supplemented with amikacin 250 mg/L and gentamycin 150 mg/L. Oocytes were then injected with 50 nL of either full-length wild-type hP2X7R (40 ng/μL), mP2X7R (20 ng/μL), or rP2X7R (20 ng/μL) mRNA made from linearized pcDNA 3.1x according to the protocol provided in the mMessage mMachine kit (Invitrogen). Injected oocytes were allowed to express for ~20 h before recording was performed.
(§2) Data acquisition was performed using an Oocyte Clamp OC-725C amplifier and pClamp 8.2 software. Buffers were applied using a gravity-fed RSC-200 Rapid Solution Changer, flowing at ~5 mL/min. All experiments use Sutter filamented glass 10 cm in length with an inner diameter of 0.69 mm and an outer diameter of 1.2 mm to impale oocytes and clamp the holding voltage at −60 mV. Experiments were recorded in buffer containing 100 mM NaCl, 2.5 mM KCl, 0.1 mM EDTA, 0.1 mM flufenamic acid, and 5 mM HEPES at pH 7.4.
(§3) This value is then averaged amongst each singular condition and reported as the mean ± SD.

rP2X7R [2] = target: T2, rP2X7R (Rattus norvegicus, UniProt Q64663); test: TEVC dose response of ATP at rP2X7R in Xenopus oocytes; format: cell-based; parameters: expressed in transfected cells; host or cells: Xenopus laevis oocytes injected with mRNA made from pcDNA 3.1x
T2 sequence (Q64663 1-595): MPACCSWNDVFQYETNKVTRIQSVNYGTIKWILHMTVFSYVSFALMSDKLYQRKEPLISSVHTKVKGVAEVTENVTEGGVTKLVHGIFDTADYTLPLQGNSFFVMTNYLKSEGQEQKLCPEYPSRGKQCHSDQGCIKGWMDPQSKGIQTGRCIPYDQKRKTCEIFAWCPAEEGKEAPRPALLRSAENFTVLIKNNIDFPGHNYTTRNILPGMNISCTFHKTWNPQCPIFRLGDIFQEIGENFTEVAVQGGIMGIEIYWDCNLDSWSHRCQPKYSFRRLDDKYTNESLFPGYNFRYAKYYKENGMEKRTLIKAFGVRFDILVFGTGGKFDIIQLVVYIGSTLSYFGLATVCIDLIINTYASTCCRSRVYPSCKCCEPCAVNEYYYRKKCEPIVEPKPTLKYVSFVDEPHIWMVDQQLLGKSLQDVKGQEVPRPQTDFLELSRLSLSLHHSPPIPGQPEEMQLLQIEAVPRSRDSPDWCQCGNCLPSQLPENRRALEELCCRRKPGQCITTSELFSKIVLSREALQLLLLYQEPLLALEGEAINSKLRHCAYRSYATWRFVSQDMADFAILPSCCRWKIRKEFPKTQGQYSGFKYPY
Experimental: as §1, §2, §3

hP2X7R [3] = target: T3, hP2X7R (Homo sapiens, UniProt Q99572); test: Bio-layer interferometry (BLI), ATP binding to biotinylated hP2X7R
T3 sequence (Q99572 1-595): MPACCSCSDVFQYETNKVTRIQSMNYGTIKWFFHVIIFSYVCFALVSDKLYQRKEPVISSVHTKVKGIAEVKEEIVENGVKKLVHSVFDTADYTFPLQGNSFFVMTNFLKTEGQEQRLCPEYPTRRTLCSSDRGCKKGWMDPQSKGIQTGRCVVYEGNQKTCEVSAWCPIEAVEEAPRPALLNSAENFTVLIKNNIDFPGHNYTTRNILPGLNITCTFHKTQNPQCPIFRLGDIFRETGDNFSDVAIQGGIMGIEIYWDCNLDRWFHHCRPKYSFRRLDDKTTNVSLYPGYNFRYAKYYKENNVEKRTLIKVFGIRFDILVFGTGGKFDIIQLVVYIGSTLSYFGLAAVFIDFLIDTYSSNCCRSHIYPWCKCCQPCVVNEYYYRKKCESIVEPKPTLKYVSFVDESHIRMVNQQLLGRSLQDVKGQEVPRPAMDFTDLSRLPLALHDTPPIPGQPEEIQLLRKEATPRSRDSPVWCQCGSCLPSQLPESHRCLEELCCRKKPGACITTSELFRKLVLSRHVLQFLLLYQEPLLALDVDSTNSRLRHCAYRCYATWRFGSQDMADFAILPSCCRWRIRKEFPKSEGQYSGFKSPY
Experimental: Briefly, BLI experiments were performed at 30 °C in 384-well tilted-bottom plates (Sartorius) with orbital shaking at 1000 r.p.m. on a ForteBio Octet RED384 instrument (ForteBio Data Acquisition software 11.0) using pre-equilibrated (0.22 μm filtered PBS at pH 7.4 and 0.5 mM DDM from Anatrace) SA biosensor tips (Sartorious) loaded with 50 μg/mL of biotinylated hP2X7R ligand or biocytin (Sigma-Aldrich) control for 1800 s[34],[35]. The loaded SA sensors were blocked with 100 μg/mL of biocytin for 150 s and then washed with running buffer for 60 s. […] After data collection, rate constants for association and dissociation were determined using ForteBio Data Analysis HT 11.0 evaluation software. To maximize signal between the large ligand and small analyte, the raw data were double reference subtracted[34],[35]. For each interaction pair, the association rate constant (ka) and the dissociation rate constant (kd) were calculated with an average of three independent assays with at least four different concentrations that were globally fit to a 1:1 Langmuir binding model. The equilibrium dissociation constant (KD) was calculated as the ratio of kd to ka. The KD, ka, and kd values are reported as the average ± the standard deviation of three replicate datasets for each analyte, with each dataset using at least four independent traces. The analyzed data were exported and plotted in GraphPad Prism 9.0.

hP2X7R [4] = target: T3, hP2X7R; test: TEVC dose response of ATP at hP2X7R in Xenopus oocytes; format: cell-based; parameters: expressed in transfected cells; host or cells: Xenopus laevis oocytes injected with mRNA made from pcDNA 3.1x
Experimental: as §1, §2, §3

[5] = parameters: method as in PMID 39139642; conditions: cited from earlier work
P2X7R = conditions: cited from earlier work
[6] = target: the molecule itself; test: cryo-EM structure; purified detergent-solubilised receptor (20 mM HEPES pH 7.0, 100 mM NaCl, 0.5 mM C12M); apo, or incubated with 900 uM ATP or antagonist at 3-4x the molar concentration of the monomer
[7] = [ATP] 3000 μM, single experiments

Normalized response, mP2X7R (mP2X7R; [ATP] 1.2 μM): 0.02 and 0.01 | Normalized response, mP2X7R (mP2X7R; [ATP] 3.7 μM): 0.017 and 0.013 and 0.009 | Normalized response, mP2X7R (mP2X7R; [ATP] 37 μM): 0.27 and 0.22 and 0.15 | Normalized response, mP2X7R (mP2X7R; [ATP] 1000 μM): 1 and 0.88 | Normalized response, mP2X7R (mP2X7R; [7]): 1 and 0.9 | EC50 (mP2X7R; read-out: EC50 for ATP, mP2X7R, TEVC, absence of divalent cations, mean ± SD, triplicate): 70 ± 17 µM | Normalized response, rP2X7R (rP2X7R [2]; [ATP] 2 μM): 0 | Normalized response, rP2X7R (rP2X7R [2]; [ATP] 37 μM): 0.41 and 0.5375 and 0.6343 | Normalized response, rP2X7R (rP2X7R [2]; [ATP] 1000 μM): 0.98 and 0.9571 and 0.9954 | Normalized response, rP2X7R (rP2X7R [2]; [7]): 1 and 0.9691 | EC50 (rP2X7R [2]; read-out: EC50 for ATP, rP2X7R, TEVC, absence of divalent cations, mean ± SD, triplicate): 34 ± 8.4 µM | rate constant for association (ka) (hP2X7R [3]; BLI, 1:1 Langmuir model): 7.4 ± 1.3 × 10^4 M^−1 s^−1 | rate constant for dissociation (kd) (hP2X7R [3]; BLI, 1:1 Langmuir model): 4.8 ± 1.2 × 10^−2 s^−1 | Kd (hP2X7R [3]; BLI, mean ± SD, triplicate, read-out: equilibrium dissociation constant (KD), hP2X7R): 0.65 ± 0.12 µM | KD higher than at the rP2X7R (hP2X7R [3]; hP2X7R vs rP2X7R): ~ 20% | ka slower than for ATP binding to the rP2X7R (hP2X7R [3]; hP2X7R vs rP2X7R): ~ 27% | kd slower than for ATP binding to the rP2X7R (hP2X7R [3]; hP2X7R vs rP2X7R): ~ 6% | Normalized response, hP2X7R (hP2X7R [4]; [ATP] 37 μM): 0.2 and 0.1456 | Normalized response, hP2X7R (hP2X7R [4]; [ATP] 1000 μM): 1 and 1.01 and 0.9474 | Normalized response, hP2X7R (hP2X7R [4]; [7]): 1.044 and 1.035 and 1.029 | EC50 (hP2X7R [4]; read-out: EC50 for ATP, hP2X7R, TEVC, absence of divalent cations, mean ± SD, triplicate): 89 ± 8.3 µM
Molecule: Nc1ncnc2c1ncn2[C@@H]1O[C@H](COP(=O)(O)OP(=O)(O)OP(=O)(O)O)[C@@H](O)[C@H]1O [ATP]
Kd (rP2X7R [1]): 0.54 ± 0.23 µM

Molecule: O=C(NCC12CC3CC(CC(C3)C1)C2)c1cc(CCCNCCCO)ccc1Cl [AZD9056]
efficacy in phase II trials for rheumatoid arthritis [5]: limited efficacy

Molecule: Clc1cccc(-c2nnnn2Cc2cccnc2)c1Cl [Compound A438079]
inhibitory activity across human, mouse and rat orthologs (P2X7R): equal inhibitory activity across all three orthologs

B1: full-length wild-type mouse P2X7 receptor (receptor, UniProt Q9Z1M0 1-595, looked up)
chain: MPACCSWNDVLQYETNKVTRIQSTNYGTVKWVLHMIVFSYISFALVSDKLYQRKEPVISSVHTKVKGIAEVTENVTEGGVTKLGHSIFDTADYTFPLQGNSFFVMTNYVKSEGQVQTLCPEYPRRGAQCSSDRRCKKGWMDPQSKGIQTGRCVPYDKTRKTCEVSAWCPTEEEKEAPRPALLRSAENFTVLIKNNIHFPGHNYTTRNILPTMNGSCTFHKTWDPQCSIFRLGDIFQEAGENFTEVAVQGGIMGIEIYWDCNLDSWSHHCRPRYSFRRLDDKNTDESFVPGYNFRYAKYYKENNVEKRTLIKAFGIRFDILVFGTGGKFDIIQLVVYIGSTLSYFGLATVCIDLLINTYSSAFCRSGVYPYCKCCEPCTVNEYYYRKKCESIMEPKPTLKYVSFVDEPHIRMVDQQLLGKSLQVVKGQEVPRPQMDFSDLSRLSLSLHDSPLTPGQSEEIQLLHEEVAPKSGDSPSWCQCGNCLPSRLPEQRRALEELCCRRKPGRCITTSKLFHKLVLSRDTLQLLLLYQDPLLVLGEEATNSRLRHRAYRCYATWRFGSQDMADFAILPSCCRWRIRKEFPKTEGQYSGFKYPY
modifications: palmitoylation of residues in the C-cys anchor
notes: P2X7 receptor (P2X purinoceptor 7), mouse, full-length wild-type, no mutations or truncations; C-terminal HRV 3-C site, GFP and histidine tag removed during purification; Homotrimeric ion channel; solved in the apo closed state; also called mP2X7R; mP2X7; not shown: GFP, C-terminal, cleaved
stoichiometry N [6]: 3

B2: full-length wild-type human P2X7 receptor (receptor, UniProt Q99572 1-595, looked up)
chain: MPACCSCSDVFQYETNKVTRIQSMNYGTIKWFFHVIIFSYVCFALVSDKLYQRKEPVISSVHTKVKGIAEVKEEIVENGVKKLVHSVFDTADYTFPLQGNSFFVMTNFLKTEGQEQRLCPEYPTRRTLCSSDRGCKKGWMDPQSKGIQTGRCVVYEGNQKTCEVSAWCPIEAVEEAPRPALLNSAENFTVLIKNNIDFPGHNYTTRNILPGLNITCTFHKTQNPQCPIFRLGDIFRETGDNFSDVAIQGGIMGIEIYWDCNLDRWFHHCRPKYSFRRLDDKTTNVSLYPGYNFRYAKYYKENNVEKRTLIKVFGIRFDILVFGTGGKFDIIQLVVYIGSTLSYFGLAAVFIDFLIDTYSSNCCRSHIYPWCKCCQPCVVNEYYYRKKCESIVEPKPTLKYVSFVDESHIRMVNQQLLGRSLQDVKGQEVPRPAMDFTDLSRLPLALHDTPPIPGQPEEIQLLRKEATPRSRDSPVWCQCGSCLPSQLPESHRCLEELCCRKKPGACITTSELFRKLVLSRHVLQFLLLYQEPLLALDVDSTNSRLRHCAYRCYATWRFGSQDMADFAILPSCCRWRIRKEFPKSEGQYSGFKSPY
modifications: palmitoylation of residues in the C-cys anchor; limited glycosylation, acylation and palmitoylation modelled
notes: P2X7 receptor (P2X purinoceptor 7), human, full-length wild-type, no mutations or truncations; C-terminal HRV 3-C site, GFP and histidine tag removed during purification; Homotrimeric ion channel; also called hP2X7R; hP2X7; not shown: GFP, C-terminal, cleaved
stoichiometry N [6]: 3
